Reference: US9034873B2, “Pyridazine and pyrrole compounds, processes for obtaining them and uses” (Centre National de la Recherche Scientifique (C.N.R.S.), priority 2006, dated 2015)
≈ marks a conversion by molar mass, not a printed value. Where two headings read alike, the source gives them in different places. Blank lines part the entries; values can stand above or below the molecule they belong to.

Columns and labels:
Caco (colon) = assay: IC50 of the referent molecules on Caco (colon) cells; format: cell-based
Sub7 (liver) = assay: IC50 of the referent molecules on Sub7 (liver) cells; format: cell-based
Fibroblast (skin) = assay: IC50 of the referent molecules on Fibroblast (skin) cells; format: cell-based
[1] = system: Leishmania mexicana amastigotes; assay: Activity against Leishmania mexicana, amastigotes; format: cell-based; conditions: amastigote stage; for IC50: Leishmania mexicana, read-out: Activity against Leishmania mexicana (IC50 μg/ml) amastigotes
Cytotoxicity on KB cells = format: cell-based; conditions: human
[2] = system: KB, Caco, Huh7 and fibroblast cells; assay: Cancer cell model: in vitro test on KB, Caco, Huh7 and fibroblast cells; format: cell-based
tonB protein = tonB protein (Escherichia coli, UniProt P02929); assay: Effect on tonB protein (iron transport used for bacterial growth); conditions: tonB protein involved in the iron transport process used for bacterial growth
tonB protein, sequence (P02929 whole entry): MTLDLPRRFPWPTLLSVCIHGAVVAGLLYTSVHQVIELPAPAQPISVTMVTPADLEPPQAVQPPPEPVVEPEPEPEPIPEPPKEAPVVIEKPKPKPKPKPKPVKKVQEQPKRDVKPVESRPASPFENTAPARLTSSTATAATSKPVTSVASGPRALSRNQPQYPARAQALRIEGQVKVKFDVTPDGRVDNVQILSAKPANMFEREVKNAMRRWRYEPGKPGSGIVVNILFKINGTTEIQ

[3] = system: Leishmania mexicana promastigotes; assay: Activity against Leishmania mexicana, promastigotes; format: cell-based; conditions: for IC50: Leishmania mexicana, read-out: Activity against Leishmania mexicana (IC50 μg/ml) promastigotes, promastigote stage
Leishmania mexicana = assay: Parasitology: activity against Leishmania mexicana; format: cell-based
Candida albicans = assay: Parasitology: activity against Candida albicans; format: cell-based
Aspergillus fumigatus = assay: Parasitology: activity against Aspergillus fumigatus; format: cell-based; conditions: for IC80: IC80 stated in the cell
[4] = 24 h, read-out: IC50 μM Caco (colon) 24 h
[5] = 48 h, read-out: IC50 μM Caco (colon) 48 h
[6] = 24 h, read-out: IC50 μM Sub7 (liver) 24 h
[7] = 48 h, read-out: IC50 μM Sub7 (liver) 48 h
[8] = Fibroblast, 24 h, read-out: IC50 μM Fibroblast (skin) 24 h
[9] = Fibroblast, 48 h, read-out: IC50 μM Fibroblast (skin) 48 H
[10] = read-out: Parasitology IC50 or 80 Leishmania mexicana μM
[11] = read-out: Parasitology IC50 or 80 Leishmania mexicana μg/mL
[12] = read-out: Parasitology IC50 or 80 Candida albicans μM
[13] = read-out: Parasitology IC50 or 80 Candida albicans μg/mL
[14] = KB cells, read-out: KB cells Cytotoxicity IC50 μM

IC50 (Caco (colon); [4]): 0.01 µM | IC50 (Caco (colon); [5]): < 0.008 µM | IC50 (Sub7 (liver); [6]): 0.01 µM | IC50 (Sub7 (liver); [7]): < 0.01 µM
SMILES: CC(=O)O[C@H]1C(=O)[C@@]2(C)[C@H]([C@H](OC(=O)c3ccccc3)[C@]3(O)C[C@H](OC(=O)[C@H](O)[C@@H](NC(=O)c4ccccc4)c4ccccc4)C(C)=C1C3(C)C)[C@]1(OC(C)=O)CO[C@@H]1C[C@@H]2O [Taxol]
IC50 (Fibroblast (skin); [8]): > 25 µM | IC50 (Fibroblast (skin); [9]): > 25 µM

IC50 (Caco (colon); [4]): 1 µM | IC50 (Caco (colon); [5]): 0.06 µM | IC50 (Sub7 (liver); [6]): 0.4 µM | IC50 (Sub7 (liver); [7]): 0.04 µM
SMILES: COc1cccc2c1C(=O)c1c(O)c3c(c(O)c1C2=O)C[C@@](O)(C(=O)CO)C[C@@H]3O[C@H]1C[C@H](N)[C@H](O)[C@H](C)O1 [Doxorubicine]
IC50 (Fibroblast (skin); [8]): 2 µM | IC50 (Fibroblast (skin); [9]): 1 µM

SMILES: C[C@@H]1[C@H](O)[C@@H](C)/C=C/C=C/C=C/C=C/C=C/C=C/C=C/[C@H](O[C@@H]2O[C@H](C)[C@@H](O)[C@H](N)[C@@H]2O)C[C@@H]2O[C@](O)(C[C@@H](O)C[C@@H](O)[C@H](O)CC[C@@H](O)C[C@@H](O)CC(=O)O[C@H]1C)C[C@H](O)[C@H]2C(=O)O [Amphotericin B]
Activity against Leishmania mexicana (IC50 μg/ml) amastigotes [1]: 0.47 ± 0.05 µg/mL

SMILES: C=C(OCC)c1ccc(-c2ccc(C(=C)OCC)nn2)nn1 [Compound 24, 6,6′-di(1-ethoxyvinyl)-3,3′-bipyridazine]
IC50 (Cytotoxicity on KB cells; KB cancer cells, text of Example 2, read-out: cytotoxic potential on KB cancer cells, IC50): 0.3 µg/mL | cytotoxic activity in a cancer cell model [2]: very high cytotoxic activity | effect on the tonB protein (tonB protein): affects the tonB protein

SMILES: Cc1cccc(-c2ccc(-c3cccc(-c4ccc(-c5cccc(C)n5)nn4)n3)nn2)n1 [Compound 49, 2,6-bis[6-(6-methylpyridin-2-yl)pyridazin-3-yl)pyridine]
cytotoxic activity in a cancer cell model [2]: very high cytotoxic activity

SMILES: CC(=O)N1CCN(c2ccc(OCC3COC(Cn4ccnc4)(c4ccc(Cl)cc4Cl)O3)cc2)CC1 (stereo not shown) [Ketoconazole]
IC50 [3]: ~0.3 µg/mL (≈ 0.565 µM) | IC50 [1]: 1.3 ± 0.2 µg/mL (≈ 2.45 µM)

IC50 (Caco (colon); [4]): 0.5 µM | IC50 (Caco (colon); [5]): 0.5 µM | IC50 (Sub7 (liver); [6]): > 25 µM | IC50 (Sub7 (liver); [7]): > 25 µM
SMILES: O=c1[nH]cc(F)c(=O)[nH]1 [Compound 5FU, 5FU]
IC50 (Fibroblast (skin); 48 H, read-out: IC50 μM Fibroblast (skin) 48 H): > 25 µM | IC50 (Fibroblast (skin); 24 h, read-out: IC50 μM Fibroblast (skin) 24 h): > 25 µM

SMILES: CCCCCCCCCCCCCCCCOP(=O)([O-])OCC[N+](C)(C)C [Miltefosine]
IC50 [3]: > 2 µg/mL | Activity against Leishmania mexicana (IC50 μg/ml) promastigotes ([3]; promastigote stage): >2 µg/mL | IC50 [1]: 1.42 ± 0.14 µg/mL (≈ 3.48 µM)

SMILES: c1ccc(-c2ccc(Sc3ccc(-c4ccccn4)nn3)nn2)nc1 [Compound 11, di(6-pyridin-2-yl)pyridazine thioether]
IC50 (Leishmania mexicana; [10]): 3 µM | IC50 (Leishmania mexicana; [11]): 8.73 µg/mL | IC50 (Candida albicans; [12]): 99 µM | IC50 (Candida albicans; [13]): 24.2 µg/mL | cytotoxic activity in a cancer cell model [2]: very high cytotoxic activity

SMILES: O=c1ccc(-c2cccc(-c3ccc(=O)[nH]n3)n2)n[nH]1 [Compound 36, 2,6-bis(3-oxo-2H-pyridazin-6-yl)pyridine]
IC50 (Cytotoxicity on KB cells; [14]): 2.6 µM | IC50 (Leishmania mexicana; [10]): 41 µM | IC50 (Leishmania mexicana; [11]): 11 µg/mL | IC50 (Candida albicans; [12]): > 100 µM | IC50 (Candida albicans; [13]): > 26.7 µg/mL

SMILES: c1ccc(-c2ccc(-c3cccc(-c4ccc(-c5ccccn5)nn4)n3)nn2)nc1 [Compound 33, 2,6-bis[6-(pyridin-2-yl)pyridazin-3-yl]-pyridine]
IC50 (Cytotoxicity on KB cells; [14]): 6.27 µM | IC50 (Cytotoxicity on KB cells; KB cells, read-out: KB cells Cytotoxicity IC50 μg/mL): 1.81 µg/mL | IC50 (Leishmania mexicana; [10]): 0.19 µM | IC50 (Leishmania mexicana; [11]): 0.05 µg/mL | IC50 (Candida albicans; [12]): 6.4 µM | IC50 (Candida albicans; [13]): 1.85 µg/mL | IC80 (Aspergillus fumigatus; read-out: Aspergillus fumigatus IC80 μM): 32 µM | IC80 (Aspergillus fumigatus; read-out: Aspergillus fumigatus IC80 μg/mL): 9.26 µg/mL

SMILES: S=c1ccc(-c2ccccn2)n[nH]1 [Compound 10, 6-(pyridin-2-yl)-2H-pyridazine-3-thione]
cytotoxic activity in a cancer cell model [2]: very high cytotoxic activity

SMILES: c1ccc(-c2ccc(-c3ccc4ccc5ccc(-c6ccc(-c7ccccn7)nn6)nc5c4n3)nn2)nc1 [Compound 66, 2,9-bis[6-(pyridin-2-yl)pyridazin-3-yl][1,10]phenanthroline]
IC50 (Leishmania mexicana; [10]): 16 µM | IC50 (Leishmania mexicana; [11]): 7.84 µg/mL | IC50 (Candida albicans; [12]): > 100 µM | IC50 (Candida albicans; [13]): ≥ 49.1 µg/mL

SMILES: O=C(O)c1cccc(-c2ccc(-c3cccc(-c4ccc(-c5cccc(C(=O)O)n5)nn4)n3)nn2)n1 [Compound 50, 2,6-bis[3-(2-carboxypyridin-6-yl)pyridazin-6-yl]pyridine]
IC50 (Leishmania mexicana; [10]): 8 µM | IC50 (Leishmania mexicana; [11]): 3.8 µg/mL | IC50 (Candida albicans; [12]): 63 µM | IC50 (Candida albicans; [13]): 30.1 µg/mL | cytotoxic activity in a cancer cell model [2]: very high cytotoxic activity

SMILES: c1ccc(-c2ccc(Oc3ccc(-c4ccccn4)nn3)nn2)nc1 [Compound 9, di(6-pyridin-2-yl)pyridazine ether]
IC50 (Leishmania mexicana; [10]): > 100 µM | IC50 (Leishmania mexicana; [11]): > 22.8 µg/mL | IC50 (Candida albicans; [12]): > 100 µM | IC50 (Candida albicans; [13]): > 22.8 µg/mL | IC50 (Aspergillus fumigatus; cell does not say IC50 or IC80, read-out: Parasitology IC50 or 80 Aspergillus fumigatus μM): > 100 µM | IC50 (Aspergillus fumigatus; cell does not say IC50 or IC80, read-out: Parasitology IC50 or 80 Aspergillus fumigatus μg/mL): > 22.8 µg/mL

SMILES: CC[C@H](CO)Nc1nc(NCc2ccccc2)c2ncn(C(C)C)c2n1 [Roscovitine]
IC50 (Fibroblast (skin); [8]): > 25 µM | IC50 (Fibroblast (skin); [9]): > 25 µM
